Measurements reported in BigSolDB 2.1.

Structure (SMILES): CC(=O)Oc1ccc(C(c2ccc(OC(C)=O)cc2)c2ccccn2)cc1
- solubility (mole fraction) (in ethanol, 278.15 K): 0.000239
- solubility (mole fraction) (in ethanol, 283.15 K): 0.000333
- solubility (mole fraction) (in ethanol, 288.15 K): 0.000452
- solubility (mole fraction) (in ethanol, 293.15 K): 0.000618
- solubility (mole fraction) (in ethanol, 298.15 K): 0.000835
- solubility (mole fraction) (in ethanol, 303.15 K): 0.0011
- solubility (mole fraction) (in ethanol, 308.15 K): 0.00145
- solubility (mole fraction) (in ethanol, 313.15 K): 0.00192
- solubility (mole fraction) (in ethanol, 318.15 K): 0.0025
- solubility (mole fraction) (in ethanol, 323.15 K): 0.00322
- solubility (mole fraction) (in isopropanol, 278.15 K): 0.000113
- solubility (mole fraction) (in isopropanol, 283.15 K): 0.000162
- solubility (mole fraction) (in isopropanol, 288.15 K): 0.000225
- solubility (mole fraction) (in isopropanol, 293.15 K): 0.000311
- solubility (mole fraction) (in isopropanol, 298.15 K): 0.000425
- solubility (mole fraction) (in isopropanol, 303.15 K): 0.000579
- solubility (mole fraction) (in isopropanol, 308.15 K): 0.000777
- solubility (mole fraction) (in isopropanol, 313.15 K): 0.00104
- solubility (mole fraction) (in isopropanol, 318.15 K): 0.00139
- solubility (mole fraction) (in isopropanol, 323.15 K): 0.00179
- solubility (mole fraction) (in methanol, 278.15 K): 0.000551
- solubility (mole fraction) (in methanol, 283.15 K): 0.000716
- solubility (mole fraction) (in methanol, 288.15 K): 0.000931
- solubility (mole fraction) (in methanol, 293.15 K): 0.00119
- solubility (mole fraction) (in methanol, 298.15 K): 0.0015
- solubility (mole fraction) (in methanol, 303.15 K): 0.0019
- solubility (mole fraction) (in methanol, 308.15 K): 0.00239
- solubility (mole fraction) (in methanol, 313.15 K): 0.00292
- solubility (mole fraction) (in methanol, 318.15 K): 0.00364
- solubility (mole fraction) (in methanol, 323.15 K): 0.00449
- solubility (mole fraction) (in water, 278.15 K): 9.39e-08
- solubility (mole fraction) (in water, 283.15 K): 1.13e-07
- solubility (mole fraction) (in water, 288.15 K): 1.35e-07
- solubility (mole fraction) (in water, 293.15 K): 1.62e-07
- solubility (mole fraction) (in water, 298.15 K): 1.91e-07
- solubility (mole fraction) (in water, 303.15 K): 2.25e-07
- solubility (mole fraction) (in water, 308.15 K): 2.64e-07
- solubility (mole fraction) (in water, 313.15 K): 3.08e-07
- solubility (mole fraction) (in water, 318.15 K): 3.57e-07
- solubility (mole fraction) (in water, 323.15 K): 4.13e-07
